{"source": "patent US20220088056A1", "about": "“COMBINATION FOR TREATING CANCER” (NITTO DENKO CORPORATION, priority 2018, published 2022)", "key": {"[1]": {"tested_on": "human normal dermal fibroblasts NHDF-Ad-Der Fibroblasts", "experiment": "Influence on proliferation of normal cells, live and dead cell count with Hoechst 33342 / propidium iodide (Example 5)", "type": "cell-based", "details": "1.1+1.1 pmol, day 4 after transfection, compared with control (Compound C and Compound I), FIG. 5", "protocol": "A combination of a BcL-XL inhibitor and a miR-345-related molecule was tested for the presence or absence of its influence on the proliferation of normal cells.\nThe BcL-XL inhibitor used was Compound A, and the miR-345-related molecule used was Compound B. Compound C was used as a negative control of the BcL-XL inhibitor, and Compound I was used as a negative control of the miR-345-related molecule.\nThe normal cells used were human normal dermal fibroblasts NHDF-Ad-Der Fibroblasts (Lonza Group AG, #CC-2511). The cells were cultured in Fibroblast Basal Medium (FBM™, Lonza Group AG, #CC-3131) containing FGM™-2 SingleQuots™ (Lonza Group AG, #CC-4126) under conditions of 37° C. and 5% CO2.\nTransfection with the BcL-XL inhibitor and/or the miR-345-related molecule was performed as follows: on the day before transfection, NHDF was seeded at 0.15×10^4 cells/well to a 96-well tissue culture plastic dish. […] Live and dead cell numbers were counted using Celigo® Image Cytometer (Nexcelom Bioscience, LLC, #Celigo-106-0448) in which the number of cells stained with Hoechst 33342 was regarded as the total of the live and dead cell numbers and the number of cells stained with propidium iodide was regarded as the dead cell number."}, "[2]": {"tested_on": "hsa-miR-345-overexpressing HCT116 cells or control HCT116 cells", "experiment": "Cell number counting in hsa-miR-345-overexpressing versus control HCT116 cells after transfection with BcL-XL inhibitor (Example 3)", "type": "cell-based", "details": "25 pmol; hsa-miR-345-overexpressing vs hsa-miR-345 wild-type HCT116 line; days 1 and 4 after transfection; FIG. 3", "protocol": "The anticancer activity of a BcL-XL inhibitor was evaluated in cancer cells in which miR-345 was overexpressed by a miR-345-related molecule.\nThe miR-345-related molecule used was Expression plasmid for human microRNA MIR345 (MI0000825, OriGene Technologies, Inc., Compound F).\nA cell line overexpressing miR-345 was established by introducing Compound E to hsa-miR-345 wild-type HCT116 cells using Lipofectamine 3000 (Invitrogen Corp.), and picking up a single clone by drug selection. In the experiment, a clone was used which was confirmed to have the increased expression of hsa-miR-345-5p by qPCR. A hsa-miR-345 wild-type HCT116 cell line as a control was established by introducing Expression plasmid pCMV-MIR Vector (PCMVMIR, OriGene Technologies, Inc., Compound G) to hsa-miR-345 wild-type HCT116 cells using Lipofectamine 3000 (Invitrogen Corp.), and picking up a single clone by drug selection.\nTransfection with Compound A was performed as follows: on the day before transfection, the hsa-miR-345-overexpressing HCT116 cells or the control HCT116 cells were seeded at 0.1×10^5 cells/well to a 6-well tissue culture plastic dish. 25 pmol of Compound A was added into 250 μL of Opti-MEM I Reduced Serum Medium (Invitrogen Corp.) and gently mixed. […] On days 1 and 4 after the transfection, the cell number was counted. […]"}}}
{"substance": "Compound A: BcL-XL inhibitor: siRNA, sense 5'-GGUAUUGGUGAGUCGGAUCtt-3' (SEQ ID NO: 4), antisense 5'-GAUCCGACUCACCAAUACCtt-3' (SEQ ID NO: 5) (sense GGUAUUGGUGAGUCGGAUCTT; antisense GAUCCGACUCACCAAUACCTT; chemistry not given here)", "values": [{"measurement": "suppression of the proliferation of normal cells", "setting": "[1]", "value": "neither the BcL-XL inhibitor alone or the miR-345-related molecule alone nor their concurrent use suppressed the proliferation of normal cells"}, {"measurement": "cell proliferation-suppressing effect (cell number)", "setting": "[2]", "value": "appeared more strongly in the hsa-miR-345-overexpressing line than in the hsa-miR-345 wild-type line"}]}
